Tests used:
children with autism [1] = assay: 12-week placebo-controlled study of NAC: Repetitive Behavior Scale-Revised (RBS-R); assay type: in vivo, human
From the text: The Repetitive Behavior Scale-Revised (RBS-R) (Bodfish et al., The Repetitive Behavior Scale: A test manual (1998)) is an empirically derived clinical rating scale for measuring the presence and severity of a variety of forms of restricted, repetitive behavior that are characteristic of individuals with autism. The RBS-R consists of 6 subscales: stereotyped behavior, self-injurious behavior, compulsive behavior, routine behavior, sameness behavior, and restricted behavior. The scale provides an overall raw score for severity of repetitive behaviors and separate measures of severity for each subtype of repetitive behavior. High scores indicate more severe behavioral symptoms.
A 12-week, double-blind randomized, placebo-controlled study of NAC in children with autism was conducted in the Autism & Developmental Disabilities Clinic in the Division of Child & Adolescent Psychiatry at Stanford University Medical Center. The recruitment period started in March 2009 and ended in September 2010. Subjects with and without mental retardation were included. After obtaining informed consent, subjects were screened and inclusion and exclusion criteria were assessed. No changes in eligibility criteria were applied throughout the study. This investigation was approved by the institutional review board at Stanford University School of Medicine. An investigational new drug application (IND#100905) was filed with the Food and Drug Administration, and the study was registered in National Institutes of Health at ClinicalTrials.gov (identifier number NCT00627705).
After the screening phase, baseline measures were obtained from subjects continuing to meet inclusion and exclusion criteria. Subjects were then randomized to either placebo or active based on age and gender. As NAC is a nutritional supplement, the quality control is predictably variable and therefore purity is not as stringent as prescription medications. Therefore, in the present study, the stability of the compound was ascertained and the integrity of the active agent was protected by packaging each NAC doses in individual pockets. The active compound and matching placebo were provided by BioAdvantex Pharma, Inc. (Mississauga, Ontario, Canada). […] Subjects randomized to the active drug were initiated at the dose of 900 mg every day for the first 4 weeks, then 900 mg twice daily for 4 weeks and 900 mg three times daily for 4 weeks. […]
If a subject could not tolerate a specific dose, s/he would be maintained at the highest tolerated dose. Subjects were evaluated at baseline, week 4, week 8 and week 12. […]

[2] = cited from earlier work
children with autism [3] = assay: 12-week placebo-controlled study of NAC: safety evaluation, adverse events (DOTES); assay type: in vivo, human
From the text: Primary behavioral outcome measures, include, for example, but are not limited to, (a) the Aberrant Behavior Checklist (ABC) irritability subscale; and (b) Dosage Record and Treatment Emergent Symptom Scale (DOTES), which provides information on the presence, frequency and severity of side effects (Guy, W., ECDEU Assessment Manual for Psychopharmacology, Rockville, Md., U.S. Department of Health, Education, and Welfare (1976)). Secondary behavioral outcome measures include, but are not limited to, (a) the Clinical Global Impression (CGI); (b) ABC-Stereotypy subscale; (c) Repetitive Behavior Scale (RBS); and (d) Social responsiveness scale (SRS).
After the screening phase, baseline measures were obtained from subjects continuing to meet inclusion and exclusion criteria. Subjects were then randomized to either placebo or active based on age and gender. As NAC is a nutritional supplement, the quality control is predictably variable and therefore purity is not as stringent as prescription medications. Therefore, in the present study, the stability of the compound was ascertained and the integrity of the active agent was protected by packaging each NAC doses in individual pockets. The active compound and matching placebo were provided by BioAdvantex Pharma, Inc. (Mississauga, Ontario, Canada). […] Subjects randomized to the active drug were initiated at the dose of 900 mg every day for the first 4 weeks, then 900 mg twice daily for 4 weeks and 900 mg three times daily for 4 weeks. (This dose selection was based on previously published studies for other psychiatric conditions (Grant, J. et al., Arch Gen Psychiatry, 66:468-475 (2009); Berk, M. et al., Biol Psychiatry, 64:361-368 (2008); Berk, M. et al., Bio Psychiatry, 64:468-475 (2008)) and the previous experience of our group in studies of children with cystic fibrosis). Alternatively, subjects were initiated at the dose of 900 mg per day, 1,800 mg per day, or 2,700 mg per day of NAC. Alternatively, the subjects were initiated at the dose ranging from 900 mg per day to 2,700 mg per day of NAC.
If a subject could not tolerate a specific dose, s/he would be maintained at the highest tolerated dose. Subjects were evaluated at baseline, week 4, week 8 and week 12. The Aberrant Behavioral Checklist (ABC) (Aman, M. et al., Am J Ment Defic. 89:492-502 (1985)), the Clinical Global Impressions (CGI) (Guy, W., ECDEU Assessment Manual for Psychopharmacology, Rockville, Md., U.S. Department of Health, Education, and Welfare (1976)), and the Dosage Record and Treatment Emergent Symptom Scale (DOTES) (Guy, W., 1976, ECDEU Assessment Manual for Psychopharmacology, Rockville, Md., U.S. Department of Health, Education, and Welfare) were obtained in each visit. Additional secondary measures were obtained at baseline and at week 12 and included the social responsiveness scale (SRS) (Constantino, J. et al., J. Dev Behav Pediatr., 21:2-11 (2000); Constantino, J. et al., J Autism Dev Disord., 33:427-433 (2003)), and the repetitive behavior scale-revised (RBS-R) (Bodfish, J. et al., The Repetitive Behavior Scale: A test manual (1998)).
The following adverse events (AEs) were more frequently reported in the NAC group than the placebo group, but differences were not statistically different (all p>0.100): depressed affect (1 vs. 0), akathisia (1 vs. 0), constipation (3 vs. 2), nausea/vomiting (6 vs. 3), increased appetite (2 vs. 0), diarrhea (3 vs. 1). The following AEs were reported more in the placebo group than the NAC group: excitement/agitation (3 vs. 2), increased motor activity (3 vs. 2), nasal congestion (6 vs. 4), decreased appetite (3 vs. 2), tremor (1 vs. 0), sweating (1 vs. 0), syncope/dizziness (1 vs. 0), increased salivation (2 vs. 0). One subject in each group reported insomnia and stomachache.

[4] = NAC group, same in placebo group

With `CC(=O)N[C@@H](CS)C(=O)O` [NAC, N-acetylcysteine] the “RBS total, Mean (SD)” value (children with autism [1]; Baseline (before treatment), NAC group n = 15) was 33.1 (16.2), the “RBS total, Mean (SD)” value (children with autism [1]; Week 12, NAC n = 14) was 22.3 (12.0) and the “RBS-Total, treatment effect” value (children with autism [1]; all randomized participants, NAC vs placebo, p=0.015) was “significant improvement”. The “RBS total, Cohen's d” value (children with autism [1]; standardized mean difference NAC vs placebo at Week 12) was “.57”, the “solubility relative to cystine” value ([2]; compared with the stable cysteine disulfide, cystine) was “much more soluble” and the “stability relative to cysteine” value ([2]; more stable than cysteine) was “about 10 times”. The “side effects observed, overall” value (children with autism [3]; 12-week study, up to 900 mg three times daily) was “Minimal side effects”, the “adverse event reported: akathisia (count)” value (children with autism [3]; NAC group, placebo 0, p>0.100) was 1 and the “adverse event reported: depressed affect (count)” value (children with autism [3]; NAC group, placebo 0, p>0.100) was 1. For the same compound, the “adverse event reported: increased appetite (count)” value (children with autism [3]; NAC group, placebo 0, p>0.100) was 2, the “adverse event reported: sweating (count)” value (children with autism [3]; NAC group, placebo 1) was 0 and the “adverse event reported: syncope/dizziness (count)” value (children with autism [3]; NAC group, placebo 1) was 0. For the same compound, the “adverse event reported: tremor (count)” value (children with autism [3]; NAC group, placebo 1) was 0, the “adverse event reported: diarrhea (count)” value (children with autism [3]; NAC group, placebo 1, p>0.100) was 3 and the “adverse event reported: increased salivation (count)” value (children with autism [3]; NAC group, placebo 2) was 0. For the same compound, the “adverse event reported: constipation (count)” value (children with autism [3]; NAC group, placebo 2, p>0.100) was 3, the “adverse event reported: decreased appetite (count)” value (children with autism [3]; NAC group, placebo 3) was 2 and the “adverse event reported: excitement/agitation (count)” value (children with autism [3]; NAC group, placebo 3) was 2. The “adverse event reported: increased motor activity (count)” value (children with autism [3]; NAC group, placebo 3) was 2, the “adverse event reported: nausea/vomiting (count)” value (children with autism [3]; NAC group, placebo 3, p>0.100) was 6 and the “adverse event reported: nasal congestion (count)” value (children with autism [3]; NAC group, placebo 6) was 4. The “adverse event reported: insomnia (subjects)” value (children with autism [3]; [4]) was “One”, the “adverse event reported: stomachache (subjects)” value (children with autism [3]; [4]) was “One” and the “subjects with worsening of baseline agitation and irritability requiring early termination” value (children with autism [3]; active group, later medical evaluation revealed severe constipation) was “one”.

Reference: patent US20130296430A1, “COMPOSITIONS AND METHODS FOR TREATING AUTISM AND AUTISM SPECTRUM DISORDER” (priority 2012, published 2013)
